In the NIST ThermoML archive (doi:10.1021/acs.jced.6b00112):
± gives the expanded uncertainty stated by the source.

What was measured:
[1] = 298.15 K; 101.33 kPa; Liquid; Vibrating tube method
[2] = refractive index (Na D-line) (dimensionless); conditions: 298.15 K; 101.33 kPa; Liquid; Standard Abbe refractometry

Row | Structure (SMILES) | mass density [1] [kg/m3] | refractive index [2]
1 | O=CO [formic acid] | 1219.5 ± 10 | 1.371 ± 0.0008
2 | CCC(=O)O [propanoic acid] | 998.04 ± 10 | 1.3807 ± 0.0008
3 | CC(=O)O [acetic acid] | 1044.12 ± 10 | 1.3714 ± 0.0008
4 | CCCC(=O)O [butanoic acid] | 952.68 ± 10 | 1.3977 ± 0.0008
5 | O [water] | – | 1.3324 ± 0.0008
6 | CCc1ccccc1 [ethylbenzene] | 862.51 ± 10 | 1.493 ± 0.0008
